Patent EP3925956B1, “1H-INDAZOLE-3-CARBOXAMIDE DERIVATIVES AND RELATED COMPOUNDS AS FACTOR D INHIBITORS FOR TREATING DISEASES CHARACTERIZED BY ABERRANT COMPLEMENT SYSTEM ACTIVITY, SUCH AS E.G. IMMUNOLOGICAL DISORDERS” (BioCryst Pharmaceuticals, Inc., priority 2016, dated 2017)

Molecular target: Factor D (Homo sapiens, UniProt P00746)
Assay: Factor D esterolytic assay

Sequence of Factor D (P00746 26-253): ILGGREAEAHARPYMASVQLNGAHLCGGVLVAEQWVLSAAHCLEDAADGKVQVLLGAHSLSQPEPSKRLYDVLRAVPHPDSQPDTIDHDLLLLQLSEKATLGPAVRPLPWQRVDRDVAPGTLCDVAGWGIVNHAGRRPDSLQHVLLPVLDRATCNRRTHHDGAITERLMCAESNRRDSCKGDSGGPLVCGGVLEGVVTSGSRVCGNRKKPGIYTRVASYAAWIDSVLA

Row | SMILES | IC50
1 | NC(=O)c1nn(CC(=O)N(CC(=O)NCc2cccc(Cl)c2F)[C@H]2C[C@H](N)C2)c2ccc(N)cc12 [351b, 5-amino-1-(2-(((trans)-3-aminocyclobutyl)(2-((3-chloro-2-fluorobenzyl)amino)-2-oxoethyl)amino)-2-oxoethyl)-1H-indazole-3-carboxamide] | < 1 µM
2 | CN(C)CC[C@H](N)c1cccc(Cl)c1F [358f, (S)-1-(3-chloro-2-fluorophenyl)-N3,N3-dimethylpropane-1,3-diamine] | 1 to 10 µM
